We go through 3 compounds from article PMC5947527 (Chemical Science, 2015).

The subject of series [1] is methicillin-sensitive Staphylococcus aureus (MSSA), Pseudomonas aeruginosa and Klebsiella pneumoniae. The series can be described thus: Confocal bacterial labelling, UBI-2 vs UBI-3 on a panel of bacteria. The following applies: fluorescence normalised to UBI-2, mean ± SEM, n ≥ 3. The format is cell-based. As for the experimental part:
Fig. 3 UBI-3 retains specificity and sensitivity for bacterial labelling. […] Panels show bacteria labelled with either UBI-2 or UBI-3 with quantification of fluorescence (values normalised to UBI-2) (Bars represent mean, error bars represent standard error of mean, n ≥ 3, ns = not significant, scale bar = 10 μm). (B) Quantification from confocal images of UBI-3 (10 μM) imaging a panel of bacteria (statistical analyses shown compared to unlabelled bacteria, n ≥ 3 for each bacteria, *** = p < 0.001). […] [MRSA: methicillin-resistant Staphylococcus aureus, MSSA: methicillin-sensitive Staphylococcus aureus]. […]
(§1) Confocal Analysis and Fluorescence Quantification: 8-Well Lab-Tek II Confocal Chambers (VWR, PA, USA) were coated in fibronectin (for neutrophil experiments) or poly-d-lysine (for bacteria) at 37 °C for 20 minutes, then washed in PBS prior to bacterial innoculation. […] Exposure to 488 nm light was limited to 5% of the maximum laser power in order to minimize toxicity. ‘Green’ fluorescence (for FAM and NBD) was excited with a dedicated 488 nm line and emitted light detected with meta detector (500-530 nM).
(§2) Syto nuclear and dyes were excited with a dedicated 543 nm line, and emitted light detected with meta detector (570-610 nM). Fields of view were chosen based on the counterstain and at least three fields of view were recorded for each condition. […]

The test system of a further series is P. aeruginosa. The series can be described thus: Live confocal imaging of bacteria, signal to noise of FAM vs NBD label. The format is cell-based. Conditions: confocal microscopy, 10 μM.
Text: UBI29–41 was firstly conjugated to carboxyfluorescein (UBI-1) and used to image bacteria with analysis via confocal microscopy. This yielded insufficient signal to noise to distinguish bacteria from background fluorescence (Fig. 1). We therefore took advantage of the environmental reporting properties of the fluorophore 7-nitrobenz-2-oxa-1,3-diazole (NBD)[12] and hypothesized there would be fluorescence amplification of NBD in the apolar hydrophobic bacterial membrane.
Fig. 1 NBD–UBI enables live confocal imaging of bacteria. […]
as §1, §2
mean fluorescence intensity on the probe channel within this ROI was quantified. […]

Series [2] is described as follows: Chemical stability on storage in phosphate buffered saline at 37 °C (HPLC). The format is physicochemical. Conditions: 1 mg mL–1 in PBS, day 0 vs day 3, HPLC, detection at 380 nm. As for the experimental part:
This modification is particularly of relevance due to the expected in vivo inflammatory oxidative environment within an infected pneumonic lung due to infiltrating host inflammatory cells such as neutrophils,[13] and therefore all subsequent modifications incorporated Nle in place of Met.
HPLC chromatograms (gradient acetonitrile + 0.1% formic acid/water + 0.1% formic acid from 5/95 to 95/5 over 10 min, then isocratic for 4 min; detection at 380 nm). UBI-2 (1 mg mL^–1 in PBS, upper panels) and UBI-3 (1 mg mL^–1 in PBS, lower panels) at (A) day 0 and (B) day 3 after incubation at 37 °C.

Series [3] deals with Methicillin sensitive S. aureus, K. pneumoniae and P. aeruginosa. In words: Bacterial affinity: fluorescence retention following a PBS wash (confocal). Type of series: cell-based. The following applies: for bacterial affinity (Table 1, effect on efficacy): Table 1 summary. The procedure:
Three compounds (UBI-3, UBI-5 and UBI-10) were assessed for further evaluation. […] In vitro affinity of bacterial binding was assessed by incorporating a wash step in the live confocal imaging protocol with a panel of bacteria with the ‘wash-off’ representing a surrogate indicator of Smartprobe-bacterial labelling affinity. […] UBI-10, therefore, was assessed further in a clinically relevant biological system.
Figure S4. Quantified fluorescence of confocal microscopy images of the compounds UBI-3, UBI-5 and UBI-10 on three bacteria and fluorescence retention following a PBS wash. Quantification of fluorescence intensity of (A) Methicillin sensitive S. aureus, (B) K. pneumoniae and (C) and P. […]
intensity following a PBS wash. […]
(§3) Confocal Analysis and Fluorescence Quantification: 8-Well Lab-Tek II Confocal Chambers (VWR, PA, USA) were coated in fibronectin (for neutrophil experiments) or poly-d-lysine (for bacteria) at 37 °C for 20 minutes, then washed in PBS prior to bacterial innoculation. For co-culture assays, neutrophils were seeded on fibronectin coated wells at 1 x 10^5 neutrophils per well for 20 minutes and non-adherent neutrophils aspirated. Bacteria were added to each chamber to a final concentration of 0.5 OD595 nm with the desired final concentration of Smartprobe. A laser-scanning confocal imaging system (LSM510; Carl Zeiss, Jena, Germany), incorporating an upright Axioskop FS2 microscope (63× objective) was used for image acquisition and processing. Exposure to 488 nm light was limited to 5% of the maximum laser power in order to minimize toxicity. ‘Green’ fluorescence (for FAM and NBD) was excited with a dedicated 488 nm line and emitted light detected with meta detector (500-530 nM).
(§4) Syto nuclear and dyes were excited with a dedicated 543 nm line, and emitted light detected with meta detector (570-610 nM). Fields of view were chosen based on the counterstain and at least three fields of view were recorded for each condition. For affinity assays, following initial imaging, the fluid was aspirated and two gentle washes with PBS were performed. The chamber was re-imaged on confocal.
(§5) Analysis was with ImageJ (version 1.46r, National Institutes of Health, USA); the Syto channel was automatically thresholded (MaxEntropy, with a set threshold 0-47) and an ROI generated from this. The […]
(§6) mean fluorescence intensity on the probe channel within this ROI was quantified. Data presented represents the mean of three experiments, from each of which three separate fields of view were assessed. All experiments were performed at least three times unless otherwise stated and results expressed as mean ± SEM. Data was analysed by unpaired t-test and significance was determined as p<0.05 (GraphPad Prism version 5.01 for Windows, GraphPad Software, San Diego California USA).
Ex vivo Human Lung and FCFM Procedure: Human lung samples were obtained from patients undergoing surgical resection for lung carcinoma. All images were obtained on sections of normal lung away from the cancerous growth. Informed consent was obtained and the study was approved by the Regional Ethics Committee. Samples were taken fresh from the operating theatre, dissected into 4mm sections and placed in wells of 96 well plate. Bacteria were pre-labelled with Smartprobe or Calcein AM and co-cultured in the well with a maximum volume of 100µl. […]

Series [4] deals with methicillin-sensitive Staphylococcus aureus. In words: Confocal labelling of MSSA with quantified fluorescence. The format is cell-based. Conditions: for concentration dependence of bacterial labelling: 0.5 μM to 50 μM, methicillin sensitive S. aureus; for bacterial labelling (fluorescence compared with UBI-3): MSSA, 10 μM, fluorescence normalized to UBI-3, mean ± SEM, n ≥ 3. As for the experimental part: Fig. 6 Confocal Images of compounds UBI-3 to 9 with quantified fluorescence. Panels show methicillin-sensitive Staphylococcus aureus incubated with UBI-3 to 9 (all 10 μM) with quantification of bacterial fluorescence normalized to UBI-3 (bars represent mean (±SEM), n ≥ 3, ns = not significant, *** = p < 0.001, * = p < 0.05, scale bar = 10 μm).
Fig. 8 Confocal images and quantification of cyclic variants when compared to UBI-3. Panels show methicillin-sensitive Staphylococcus aureus incubated with cyclic UBI compounds (all 10 μM) with quantification of bacterial fluorescence normalized to UBI-3 (bars represent mean (±SEM), n ≥ 3, ns = not significant, ** = p < 0.01, scale bar = 10 μm).
Bacterial Culture and Labelling: Bacteria used were K. pneumoniae (ATCC BAA1706) ATCC, E. coli (ATCC 25922) ATCC, A. baumannii (J3433) Clinical Isolate, P. aeruginosa (J3284) Clinical Isolate, Methicillin Resistant S. aureus (MRSA) (ATCC25923) ATCC and Methicillin Sensitive S. aureus (MSSA) (ATCC 252) ATCC. All bacteria were grown on Lysogeny broth (LB) agar and from a single bacterial colony placed into 10ml of LB and incubated at 37°C for 16 hours in an orbital shaker.
Cultures were centrifuged at 4000rpm for 5 minutes and the pellet resuspended in 1ml phosphate buffered saline (PBS, Life Technologies). Following three further washes in PBS the cultures were reconstituted to 1 OD595 nm. Bacteria were counterstained with 5µM Syto 82 orange fluorescent nucleic acid stain (Invitrogen, CA, USA) in a shaking heat block at 37 °C for 20 minutes. For FCFM bacteria were stained with 1µM Calcein AM (Sigma, MO, USA) for 30 minutes at 37 °C. Counterstained bacteria were washed in PBS to remove excess dye. […]
as §3, §4, §5, §6
Ex vivo Human Lung and FCFM Procedure: Human lung samples were obtained from patients undergoing surgical resection for lung carcinoma. All images were obtained on sections of normal lung […]

Entries after “also recorded” stand apart in the source; their conditions may differ. Residues, ends and D or L forms follow the SMILES beside them. *: point of attachment. NBD = O=[N+]([O-])c1ccc(*)c2nonc12; Ahx = NCCCCCC(=O)O

Turning to `CSCC[C@H](NC(=O)[C@H](CCCNC(=N)N)NC(=O)[C@H](CCCNC(=N)N)NC(=O)[C@H](CCCCN)NC(=O)[C@H](C)NC(=O)[C@H](CCCNC(=N)N)NC(=O)CNC(=O)[C@@H](NC(=O)CCCCCNc1ccc([N+](=O)[O-])c2nonc12)[C@@H](C)O)C(=O)N[C@@H](CCC(N)=O)C(=O)N[C@@H](Cc1ccc(O)cc1)C(=O)N[C@@H](CC(N)=O)C(=O)N[C@@H](CCCNC(=N)N)C(=O)N[C@@H](CCCNC(=N)N)C(N)=O` [UBI-2] ({NBD-Ahx}-TGRAKRRMQYNRR-NH2), the “bacterial labelling, Met vs Nle variant” value in series [1] was “same fluorescence intensity”. The “signal to noise for bacterial labelling” value in the series on P. aeruginosa was “good signal to noise; also recorded: higher signal to noise for bacterial labelling over UBI-1”. In series [2], the “chemical stability in PBS at 37 °C” value was “underwent chemical degradation; also recorded: Unstable at 37 °C in PBS”.

As to “NBD-Ahx-Thr-Gly-Arg-Ala-Lys-Arg-MeArg-Nle-Gln-Tyr-Asn-Arg-Arg-D-Phe-D-Val-NH2 [UBI-5, NBD-UBI with D-amino acids (D-Val and D-Phe) incorporated at the C-terminus]”, the “fluorescence following labelling and a PBS wash” value in series [3] (10 µM, two gentle PBS washes, three bacterial species, n=3) is “significantly lower fluorescence”. Besides, the “bacterial affinity (Table 1, effect on efficacy)” value in series [3] is “poor bacterial affinity”. In series [4], the “concentration dependence of bacterial labelling” value is on record as “concentration dependent manner” and the “bacterial labelling (fluorescence compared with UBI-3)” value is “same intensity as UBI-3”.

As to “NBD-Ahx-Thr-Gly-Arg-Ala-Lys-MeArg-MeArg-Nle-Gln-Tyr-Asn-MeArg-MeArg-NH2 [UBI-4, NBD-UBI with N-Methylarginine (MeArg) insertion based on MALDI-TOF analysis of cleavage peptides]”, the “bacterial affinity (Table 1, effect on efficacy)” value in series [3] was “poor bacterial affinity”. Further, in series [4], the “concentration dependence of bacterial labelling” value is given as “concentration dependent increase in bacterial fluorescence” and the “bacterial labelling (fluorescence compared with UBI-3)” value is “same intensity as UBI-3”.
